US4550102A, “Cephem compounds” (Fujisawa Pharmaceutical Co. Ltd., priority 1981, dated 1985)

What was measured:
Assay in all cases: In vitro antimicrobial activity, two-fold agar-plate dilution method
Type in all cases: cell-based
E. coli NIHJ JC - 2 = conditions: Escherichia coli, heart infusion agar, 37° C., 20 hours, approximately 10^8 viable cells per ml, read-out: MIC (minimal inhibitory concentration)
Protocol: (§1) Test: In vitro Antimicrobial Activity
(§2) In vitro Antimicrobial activity was determined by the two-fold agar-plate dilution method as described below.
(§3) One loopful of an overnight culture of each test strain in Tripticase-soy broth (approximately 10^8 viable cells per ml) was streaked on heart infusion agar (HI-agar) containing graded concentrations of an antimicrobial agent, and the minimal inhibitory concentration (MIC) was expressed in term of μg/ml after incubation at 37° C. for 20 hours.

E. coli 31 = conditions: Escherichia coli, heart infusion agar, 37° C., 20 hours, approximately 10^8 viable cells per ml, read-out: MIC (minimal inhibitory concentration)
Protocol: as §1, §2, §3

K. pneumoniae 20 = conditions: Klebsiella pneumoniae, heart infusion agar, 37° C., 20 hours, approximately 10^8 viable cells per ml, read-out: MIC (minimal inhibitory concentration)
Protocol: as §1, §2, §3

Measured: MIC

CO/N=C(\C(=O)NC1C(=O)N2C(C(=O)[O-])=C(C[n+]3cccc(N)c3)CSC12)c1csc(N)n1 (stereo not drawn) [Compound A, 7-[2-Methoxyimino-2-(2-aminothiazol-4-yl)acetamido]-3-(3-amino-1-pyridiniomethyl)-3-cephem-4-carboxylate (syn isomer)]
< 0.025 µg/mL: all assays above
